Measured values taken from US9877961B2, “Anticoagulant reversal agents” (PEROSPHERE INC., priority 2011, dated 2018).
Entries after “also recorded” stand apart in the source; their conditions may differ.

What was measured:
plasma proteins = assay: Plasma protein binding; assay type: in vitro ADME; settings: data not shown
[1] = system: dabigatran etexilate (PRADAXA®) anticoagulation; assay: Rat tail transection bleeding assay, dabigatran etexilate; assay type: in vivo
Method: (§1) Rat tail bleeding assay or rat tail transection assay is an assay that measures blood loss, e.g., blood loss after drug administration. In one embodiment, where the effect of the compound of the invention (e.g., DAP) is being tested, at the Tmax of the anticoagulant, DAP is administered intravenously. After 20 minutes, rat tails are transected approximately 1 mm from the tip, placed in room temperature saline, and blood is collected for 30 minutes and weighed.
(§2) Three rats each were administered 2 mg of rivaroxaban. One rat received a sham reversal containing no DAP, the second received 2.5 mg of DAP, and the third received 12.5 mg DAP. A fourth fat received sham anticoagulant and reversal doses (“sham”). 20 minutes after the reversal dose, tails were transected 1 mm from the tip, placed in room temperature saline, and blood loss was collected for 30 minutes and then weighed.
Same procedures were used with 1.25 mg apixaban (ELIQUIS®) alone or in combination with 5 or 12.5 mg DAP; […]; and with 5 mg edoxaban (LIXIANA®) alone or in combination with 12.5 mg DAP.

[2] = system: rivaroxaban anticoagulation; assay: DAP reversal of rivaroxaban in human plasma ex vivo, Biophen anti-Factor Xa chromogenic assay; assay type: biochemical
Method: The anti-factor Xa assay directly measures anti-factor Xa activity. The methodology behind an anti-factor Xa assay is that patient plasma is added to a known amount of excess factor Xa and excess antithrombin. If a factor Xa inhibitor is present in the patient plasma, it will reduce the enzymatic activity of factor Xa. The amount of residual factor Xa is inversely proportional to the amount of anti-Xa agent in the plasma. The amount of residual factor Xa is detected by adding a chromogenic substrate that mimics the natural substrate of factor Xa, making residual factor Xa cleave it, releasing a colored compound that can be detected by a spectrophotometer. […]
218 μg/L or 459 μg/L of rivaroxaban was added to human plasma, with or without 1,250 μg/L or 6,250 μg/L of DAP, respectively. […] DAP effect on anticoagulation was measured by 510 k cleared Biophen anti-Factor Xa chromogenic assay. Rivaroxaban concentrations were determined by comparison with plasma calibration standards, while apixaban concentrations were inferred from stock solution dilutions as calibration standards are not yet available.
218 μg/L rivaroxaban was added to human plasma either alone or in combination with 1.25, 12.5, 125, or 1,250 μg/L of DAP. Factor Xa activity was measured by 510 k cleared Biophen anti-Xa chromogenic assay kit. Rivaroxaban concentrations were determined by comparison with plasma calibration standards.

[3] = system: rivaroxaban anticoagulation; assay: Rat tail transection bleeding assay, rivaroxaban; assay type: in vivo
Method: as §1, §2

[4] = DLS association of DAP with LMWH (bemiparin); assay type: binding
Method: (§3) Dynamic light scattering (DLS) was used to assess association of 1 mg/ml unfractionated heparin and 1 mg/ml bemiparin (LMWH; HIBOR®), either alone or in combination with […] DAP in water (mass ratios of 100:1 of DAP to heparin or LMWH).
Rivaroxaban (XARELTO®) alone, DAP alone, and DAP:rivaroxaban combinations at mass ratios of 1:1 and 10:1 were added into an aqueous solution and analyzed by dynamic light scattering (DLS) to assess association of the DAP and rivaroxaban. A similar experiment was conducted on apixaban (ELIQUIS®) alone, DAP alone, and DAP:apixaban combinations at mass ratios of 1:1, 10:1 and 100:1. Fondaparinux (ARIXTRA®) alone, DAP alone, and fondaparinux:DAP combinations at mass ratios of 1:1, 10:1 and 100:1 were similarly tested. LMWH (bemiparin; HIBOR®), alone, DAP alone, and LMWH:DAP combinations at mass ratios of 1:1, 10:1, and 100:1 were also tested. The concentration of LMWH tested was 0.1 mg/ml. Therefore, at 1:1, 0.1 mg/ml DAP was tested, at 10:1, 1 mg/ml was tested, and at 100:1, 10 mg/ml DAP was tested.

[5] = DLS association of DAP with argatroban; assay type: binding; settings: concentrations up to 1:1000
aPTT = assay: Intravenous DAP alone, aPTT in the absence of anticoagulants; assay type: in vivo, rat; settings: 0, 2, 10, 25, 50 or 100 mg DAP i.v., no anticoagulant
Method: 0, 2, 10, 25, 50 or 100 mg DAP were administered intravenously to male, weight matched CD rats and aPTT was measured.

[6] = system: apixaban (ELIQUIS®) anticoagulation; assay: Rat tail transection bleeding assay, apixaban; assay type: in vivo; settings: for blood loss (blood collected over 30 minutes): p<0.01 vs apixaban only
Method: as §1, §2
Same procedures were used with 1.25 mg apixaban (ELIQUIS®) alone or in combination with 5 or 12.5 mg DAP; with 15.5 mg dabigatran etexilate (PRADAXA®) alone or in combination with 5 or 12.5 mg DAP; and with 5 mg edoxaban (LIXIANA®) alone or in combination with 12.5 mg DAP.

[7] = Dynamic light scattering (DLS) association of DAP with unfractionated heparin; assay type: binding; settings: DAP:heparin 100:1 mass ratio in water
Method: as §3

[8] = Oral bioavailability of DAP in rats; assay type: in vivo, rat
[9] = Intravenous DAP tolerability in rats; assay type: in vivo, rat; settings: DAP i.v. at 100 mg/kg, 250 mg/kg and 400 mg/kg in rats
[10] = Stability of DAP powder: storage at 4° C. and differential scanning calorimetry; assay type: physicochemical
Method: An acetate salt of DAP was prepared as described herein. As described in these examples, DAP solid or powder refers to the acetate salt, while DAP in solution refers to the free base as the salt ionizes in aqueous solution. As described in these examples, the DAP compound used was the compound of Formula VII.
The DAP powder was tested for thermal stability in two ways. DAP was stored at 4° C. for 7 months prior to use. Additionally, the DAP solid was tested by differential scanning calorimetry (DSC) by heating from −20° C. to 200° C., back to −20° C. and again to 200° C.

[11] = rat tail transection, 30 minutes

- plasma protein binding (plasma proteins): did not appreciably bind
- binding by DLS [5]: did not bind
- oral bioavailability [8]: orally bioavailable
- stability to storage as a lyophilized powder ([10]; 4° C.): more than one year
- stability of DAP powder on storage ([10]; 4° C., powder (acetate salt)): more than 12 months
Compound: N=C(N)NCCC[C@H](N)C(=O)NCCCN1CCN(CCCNC(=O)[C@@H](N)CCCNC(=N)N)CC1 (stereo in doubt) [DAP, 2-Amino-5-guanidino-pentanoic acid (3-{4-[3-(2-amino-5-guanidino-pentanoylamino)-propyl]-piperazin-1-yl}-propyl)-amide]
- blood loss (blood collected over 30 minutes) ([1]; 15 mg dabigatran etexilate and 12.5 mg DAP, p<0.01 vs dabigatran etexilate only): reduced blood loss to sham dose levels
- reversal of dabigatran, blood loss vs anticoagulant only [1, 11]: statistically significant reduction in blood loss
- effective anticoagulant concentration after DAP ([2]; 218 μg/L rivaroxaban with 1,250 μg/L DAP, 459 μg/L rivaroxaban with 6,250 μg/L DAP): below the minimum effective concentration
- dose dependence of rivaroxaban reversal ([2]; 218 μg/L rivaroxaban, 1.25, 12.5, 125, or 1,250 μg/L DAP): dose-responsive trend; also recorded: dose-dependent reversal
- blood loss (blood collected over 30 minutes) ([3]; 2 mg rivaroxaban and 12.5 mg DAP, p<0.05 vs rivaroxaban only): reduced blood loss to sham dose levels
- reversal of rivaroxaban, blood loss vs anticoagulant only [3, 11]: statistically significant reduction in blood loss
- physical association / binding by DLS [4]: physically associated; also recorded: directly bound
- influence of DAP on aPTT (aPTT): did not influence aPTT
- blood loss (blood collected over 30 minutes) ([6]; 1.25 mg apixaban and 5 mg DAP): reduced blood loss to sham dose levels
- blood loss (blood collected over 30 minutes) ([6]; 1.25 mg apixaban and 12.5 mg DAP): reduced blood loss to sham dose levels
- reversal of apixaban, blood loss vs anticoagulant only [6, 11]: reversed; also recorded: statistically significant reduction in blood loss
- physical association / binding by DLS [7]: physically associated; also recorded: directly bound
- adverse effects [9]: no adverse effect
- thermal stability (DSC, stability to sterilization) ([10]; heating from −20° C. to 200° C., twice): survived repeated heating to 200 °C
